Laboratory results as given in PubChem BioAssay AID1963972 (Molecular Pharmacology Branch, DTP, NCI, 2024).

Test system: 945468-187-T-J2-PDC spheroids viability
Experiment: Anticancer human tumor 945468-187-T-J2-PDC patient-derived rectal carcinoma cell line growth inhibition [PI3K]
Conditions: spheroids with HUVEC and MSC; for IC50: curve of first compound; for viability, T/C: stronger effect = lower value
Method in brief: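 Three cell types, namely tumor cells, endothelial cells and mesenchymal stem cells, formed each spheroid. Combinations with four PI3K inhibitors were screened at clinically achievable concentrations decreasing by half-log, and spheroid viability was recorded.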
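Note: spheroids exposed to compounds for seven days before reading.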

CNC(=O)c1ccc(N2C(=S)N(c3ccc(C#N)c(C(F)(F)F)c3)C(=O)C2(C)C)cc1F + CC(Nc1ncnc2nc[nH]c12)c1cc2cccc(Cl)c2c(=O)n1-c1ccccc1
IC50 (second compound 0.0316 µM): > 10 µM | IC50 (second compound 0.1 µM): > 10 µM | IC50 (second compound 0.316 µM): > 10 µM | IC50 (second compound 1 µM): > 10 µM | IC50 (second compound 3.16 µM): > 10 µM | IC50 (second compound 10 µM): > 10 µM | viability, T/C (second compound 0.0316 µM, first compound 0.0316 µM): 111% | viability, T/C (second compound 0.0316 µM, first compound 0.1 µM): 93.6% | viability, T/C (second compound 0.0316 µM, first compound 0.316 µM): 96.3% | viability, T/C (second compound 0.0316 µM, first compound 1 µM): 85.3% | viability, T/C (second compound 0.0316 µM, first compound 3.16 µM): 85.1% | viability, T/C (second compound 0.0316 µM, first compound 10 µM): 75.7% | viability, T/C (second compound 0.1 µM, first compound 0.0316 µM): 92.6% | viability, T/C (second compound 0.1 µM, first compound 0.1 µM): 92.5% | viability, T/C (second compound 0.1 µM, first compound 0.316 µM): 91.1% | viability, T/C (second compound 0.1 µM, first compound 1 µM): 91% | viability, T/C (second compound 0.1 µM, first compound 3.16 µM): 106% | viability, T/C (second compound 0.1 µM, first compound 10 µM): 88.3% | viability, T/C (second compound 0.316 µM, first compound 0.0316 µM): 138% | viability, T/C (second compound 0.316 µM, first compound 0.1 µM): 100% | viability, T/C (second compound 0.316 µM, first compound 0.316 µM): 95.7% | viability, T/C (second compound 0.316 µM, first compound 1 µM): 111% | viability, T/C (second compound 0.316 µM, first compound 3.16 µM): 101% | viability, T/C (second compound 0.316 µM, first compound 10 µM): 89.5% | viability, T/C (second compound 1 µM, first compound 0.0316 µM): 95.5% | viability, T/C (second compound 1 µM, first compound 0.1 µM): 87% | viability, T/C (second compound 1 µM, first compound 0.316 µM): 100% | viability, T/C (second compound 1 µM, first compound 1 µM): 105% | viability, T/C (second compound 1 µM, first compound 3.16 µM): 104% | viability, T/C (second compound 1 µM, first compound 10 µM): 114% | viability, T/C (second compound 3.16 µM, first compound 0.0316 µM): 111% | viability, T/C (second compound 3.16 µM, first compound 0.1 µM): 93.9% | viability, T/C (second compound 3.16 µM, first compound 0.316 µM): 89.7% | viability, T/C (second compound 3.16 µM, first compound 1 µM): 106% | viability, T/C (second compound 3.16 µM, first compound 3.16 µM): 105% | viability, T/C (second compound 3.16 µM, first compound 10 µM): 93.3% | viability, T/C (second compound 10 µM, first compound 0.0316 µM): 89.4% | viability, T/C (second compound 10 µM, first compound 0.1 µM): 108% | viability, T/C (second compound 10 µM, first compound 0.316 µM): 101% | viability, T/C (second compound 10 µM, first compound 1 µM): 102% | viability, T/C (second compound 10 µM, first compound 3.16 µM): 113% | viability, T/C (second compound 10 µM, first compound 10 µM): 90.5%

Cn1cnc2c(F)c(Nc3ccc(Br)cc3Cl)c(C(=O)NOCCO)cc21 + CC(Nc1ncnc2nc[nH]c12)c1cc2cccc(Cl)c2c(=O)n1-c1ccccc1
IC50 (second compound 0.0316 µM): > 3 µM | IC50 (second compound 0.1 µM): > 3 µM | IC50 (second compound 0.316 µM): > 3 µM | IC50 (second compound 1 µM): > 3 µM | IC50 (second compound 3.16 µM): > 3 µM | IC50 (second compound 10 µM): > 3 µM | viability, T/C (second compound 0.0316 µM, first compound 0.00949 µM): 100% | viability, T/C (second compound 0.0316 µM, first compound 0.03 µM): 103% | viability, T/C (second compound 0.0316 µM, first compound 0.0949 µM): 84.1% | viability, T/C (second compound 0.0316 µM, first compound 0.3 µM): 92.8% | viability, T/C (second compound 0.0316 µM, first compound 0.949 µM): 92% | viability, T/C (second compound 0.0316 µM, first compound 3 µM): 73.7% | viability, T/C (second compound 0.1 µM, first compound 0.00949 µM): 99.3% | viability, T/C (second compound 0.1 µM, first compound 0.03 µM): 82.1% | viability, T/C (second compound 0.1 µM, first compound 0.0949 µM): 85.1% | viability, T/C (second compound 0.1 µM, first compound 0.3 µM): 93% | viability, T/C (second compound 0.1 µM, first compound 0.949 µM): 83.1% | viability, T/C (second compound 0.1 µM, first compound 3 µM): 74% | viability, T/C (second compound 0.316 µM, first compound 0.00949 µM): 111% | viability, T/C (second compound 0.316 µM, first compound 0.03 µM): 90.8% | viability, T/C (second compound 0.316 µM, first compound 0.0949 µM): 92.4% | viability, T/C (second compound 0.316 µM, first compound 0.3 µM): 91.8% | viability, T/C (second compound 0.316 µM, first compound 0.949 µM): 81.5% | viability, T/C (second compound 0.316 µM, first compound 3 µM): 80.3% | viability, T/C (second compound 1 µM, first compound 0.00949 µM): 122% | viability, T/C (second compound 1 µM, first compound 0.03 µM): 106% | viability, T/C (second compound 1 µM, first compound 0.0949 µM): 79.7% | viability, T/C (second compound 1 µM, first compound 0.3 µM): 88.3% | viability, T/C (second compound 1 µM, first compound 0.949 µM): 81.8% | viability, T/C (second compound 1 µM, first compound 3 µM): 82.7% | viability, T/C (second compound 3.16 µM, first compound 0.00949 µM): 81.6% | viability, T/C (second compound 3.16 µM, first compound 0.03 µM): 94.3% | viability, T/C (second compound 3.16 µM, first compound 0.0949 µM): 104% | viability, T/C (second compound 3.16 µM, first compound 0.3 µM): 107% | viability, T/C (second compound 3.16 µM, first compound 0.949 µM): 81.7% | viability, T/C (second compound 3.16 µM, first compound 3 µM): 79.9% | viability, T/C (second compound 10 µM, first compound 0.00949 µM): 92.7% | viability, T/C (second compound 10 µM, first compound 0.03 µM): 94.1% | viability, T/C (second compound 10 µM, first compound 0.0949 µM): 97.9% | viability, T/C (second compound 10 µM, first compound 0.3 µM): 91.5% | viability, T/C (second compound 10 µM, first compound 0.949 µM): 83.8% | viability, T/C (second compound 10 µM, first compound 3 µM): 72%
